Assay results reported in patent US7771726B2, “Use of synthetic glycolipids as universal adjuvants for vaccines against cancer and infectious diseases” (New York University, priority 2003, dated 2010).

Legend:
[1] = tested on: malaria antigen-specific CD8+ T-cell responses; experiment: adjuvant activity with suboptimal dose of recombinant adenovirus expressing a malarial antigen (FIG. 2); format: in vivo, mice
From the text: FIG. 2 depicts the adjuvant activity of CRONY 101, and the enhancement of a malaria-specific CD8+ T-cell response elicited by a recombinant adenovirus expressing a malaria antigen; and
In FIG. 2, the number of IFN secreting CD8+ T cells per million splenocytes is greater for CRONY 101 than for α-GalCer.
Thus, co-administration of α-C-GalCer to mice immunized with a suboptimal dose of a recombinant adenovirus expressing a malarial antigen enhanced protective antimalaria immunity and the level of malaria antigen-specific CD8^+ T-cell responses. Coadministration of 1 ng of CRONY 101 was compared to administration of 1 μg of α-GalCer.

[2] = tested on: Gag-specific CD8+ and CD4+ T cell response; experiment: adjuvant activity with DNA vaccine encoding an HIV Gag sequence (FIGS. 3A and 3B); format: in vivo; settings: for Gag-specific CD8+ T cell response: FIG. 3A
From the text: FIGS. 3A and 3B depict the adjuvant activity of α-GalCer and CRONY 101, and the enhancement of a Gag-specific CD8+ T-cell response elicited by a DNA vaccine encoding an HIV-Gag sequence.
Further studies used a naked DNA plasmid encoding an HIV Gag sequence, as a vaccine.

melanoma metastases = melanoma metastases disease model, activity compared to α-GalCer; format: in vivo, mice; settings: disease model requiring Th1-type responses; relative to α-GalCer
From the text: (§1) As reported in copending U.S. patent application Ser. No. 10/206,155, α-Galactosylceramide (α-GalCer) is a glycolipid ligand for natural killer T (NKT) cells, which respond to the glycolipid and produce both interferon (IFN)-γ and interleukin (IL)-4. […] It has now been discovered that synthetic C-glycoside analogs of α-GalCer of general formula (I) act as an NKT cell ligand and display 100-1000 fold higher activity against tumor and malaria, by preferentially inducing the production of Th1-type cytokines, IFN-γ and IL-12, in vivo.

human NKT cells = experiment: stimulation of human NKT cells; format: cell-based
murine NKT cells = experiment: stimulation of murine NKT cells; format: cell-based
[3] = tested on: Th1-type cytokines, IFN-γ and IL-12; Th2 cytokine, IL-4; experiment: cytokine production in vivo after administration to mice; settings: as compared to α-GalCer
From the text: as §1

malaria = malaria disease model in mice, activity compared to α-GalCer; format: in vivo; settings: disease model requiring Th1-type responses; relative to α-GalCer
From the text: as §1

[4] = tested on: mouse CD1d-restricted lymphocytes that express a semi-invariant TCR; settings: Kawano et al., 1997; cited from earlier work
[5] = tested on: HIV specific CD4+/CD8+ T-cell responses; experiment: adjuvant effects on DNA vaccination in mice (FIG. 1); format: in vivo
From the text: FIG. 1 depicts the adjuvant effects of α-GalCer on DNA vaccination in mice, and the enhancement of HIV-specific CD4+/CD8+ T-Cell responses;
FIG. 1 depicts the adjuvant effects of the α-GalCer on DNA vaccination in mice.

[6] = tested on: human CD1d-restricted lymphocytes that express a semi-invariant TCR; settings: Kawano et al., 1997; cited from earlier work
[7] = co-administration, mice immunized with suboptimal dose of recombinant adenovirus
[8] = DNA vaccine encoding an HIV Gag sequence

SMILES	increased number of malaria specific CD8+ cells ([1]; 1 ng of CRONY 101 as compared to 1 μg of α-GalCer)	number of IFN secreting CD8+ T cells per million splenocytes ([1]; FIG. 2, compared with α-GalCer)	adjuvant activity compared with α-GalCer ([1]; FIG. 2, recombinant adenovirus expressing a malaria antigen)	level of malaria antigen-specific CD8+ T-cell responses [1, 7]	protective antimalaria immunity [1, 7]	Gag-specific CD8+ T cell response [2, 8]	Gag-specific CD4+ T cell response ([2]; FIG. 3B, DNA vaccine encoding a HIV-Gag sequence)	adjuvant activity compared with α-GalCer ([2]; FIGS. 3A and 3B, DNA vaccine encoding an HIV Gag sequence)	more potent activity than α-GalCer, melanoma metastases (melanoma metastases)	stimulation of human NKT cells (human NKT cells)	stimulation of murine NKT cells (murine NKT cells)	population of the Th2 cytokine, IL-4 [3]	production of the Th1-type cytokines [3]	more potent activity than α-GalCer, malaria (malaria)	concentrations at which recognized [4]	HIV specific CD4+/CD8+ T-cell responses [5]	concentrations at which recognized [6]
CCCCCCCCCCCCCCCCCCCCCCCCCC(=O)N[C@@H](CCC1OC(CO)[C@H](O)C(O)[C@@H]1O)[C@H](O)[C@H](O)CCCCCCCCCCCCCC (stereo partly drawn) [CRONY 101, 3′S,4′S,5′R-3′-N-hexacosanoyl-4′,5′-dihydroxynonadecyl-α-C-D-galactopyranoside]	⅚	greater	more potent	enhanced	enhanced	enhances	enhancing	more potent	100 fold	stimulate	stimulate	decreased	prolonged production	1000 fold			
CCCCCCCCCCCCCCCCCCCCCCCCCC(=O)N[C@@H](CO[C@H]1O[C@H](CO)[C@H](O)[C@H](O)[C@H]1O)[C@H](O)[C@H](O)CCCCCCCCCCCCCC [α-GalCer, α-galactosyl-ceramide, reference compound]						enhancement				stimulate	stimulate				picomolar	enhancement	picomolar
